Laboratory results reported in ChEMBL document CHEMBL1201862, “PubChem BioAssay data set” (2004).
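All cell lines were grown in 96-well plates and treated with compound for 48 hours. GI50 is the concentration that inhibits growth by half.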 Calls of active or inactive are those of the source. Rule as the data show it: active = GI50 up to about 1.1 µM and inactive = higher.

Assays:
Assay in all cases: NCI anticancer screen, dose series, 48 h
786-0 = system: 786-0
A498 = system: A498
A549 = system: A549
ACHN = system: ACHN
CAKI-1 = system: CAKI-1
CCRF-CEM = system: CCRF-CEM
COLO 205 = system: COLO 205
DLD-1 = system: DLD-1
DMS-114 = system: DMS-114
DMS-273 = system: DMS-273
EKVX = system: EKVX
HCC 2998 = system: HCC 2998
HCT-116 = system: HCT-116
HCT-15 = system: HCT-15
HL-60 = system: HL-60
HOP-18 = system: HOP-18
HOP-62 = system: HOP-62
HOP-92 = system: HOP-92
HT-29 = system: HT-29
IGROV-1 = system: IGROV-1
K562 = system: K562
KM-20L2 = system: KM-20L2
KM12 = system: KM12
LOX IMVI = system: LOX IMVI
LXFL 529 = system: LXFL 529
M14 = system: M14
M19-MEL = system: M19-MEL
MOLT-4 = system: MOLT-4
Malme-3M = system: Malme-3M
NCI-H226 = system: NCI-H226
NCI-H23 = system: NCI-H23
NCI-H460 = system: NCI-H460
NCI-H522 = system: NCI-H522
OVCAR-3 = system: OVCAR-3
OVCAR-4 = system: OVCAR-4
OVCAR-5 = system: OVCAR-5
OVCAR-8 = system: OVCAR-8
RPMI-8226 = system: RPMI-8226
RXF 393 = system: RXF 393
SF-295 = system: SF-295
SF-539 = system: SF-539
SK-MEL-28 = system: SK-MEL-28
SK-MEL-2 = system: SK-MEL-2
SK-MEL-5 = system: SK-MEL-5
SK-OV-3 = system: SK-OV-3
SN12C = system: SN12C
SNB-19 = system: SNB-19
SNB-75 = system: SNB-75
SNB-78 = system: SNB-78
SR = system: SR
SW-620 = system: SW-620
TK-10 = system: TK-10
U-251 = system: U-251
UACC-257 = system: UACC-257
UACC-62 = system: UACC-62
UO-31 = system: UO-31
SF-268 = system: SF-268

SMILES: O=C(CCN1CCN(c2ccccc2)CC1)N1CCc2c([nH]c3ccccc23)C1c1cccnc1 (stereo not drawn)
- GI50 (786-0): 15.4 µM (inactive)
- GI50 (A498): 19.1 µM (inactive)
- GI50 (A549): 14.8 µM (inactive)
- GI50 (ACHN): 20 µM (inactive)
- GI50 (CAKI-1): 18.1 µM (inactive)
- GI50 (CCRF-CEM): 20.6 µM (inactive)
- GI50 (COLO 205): 13.5 µM (inactive)
- GI50 (DLD-1): 18.4 µM (inactive)
- GI50 (DMS-114): 13.2 µM (inactive)
- GI50 (DMS-273): 17.5 µM (inactive)
- GI50 (EKVX): 16.9 µM (inactive)
- GI50 (HCC 2998): 21.7 µM (inactive)
- GI50 (HCT-116): 14.9 µM (inactive)
- GI50 (HCT-15): 15.2 µM
- GI50 (HL-60): 14.3 µM (inactive)
- GI50 (HOP-18): 18.5 µM (inactive)
- GI50 (HOP-62): 20.8 µM (inactive)
- GI50 (HOP-92): 18.5 µM (inactive)
- GI50 (HT-29): 15 µM (inactive)
- GI50 (IGROV-1): 39.7 µM (inactive)
- GI50 (K562): 15.9 µM (inactive)
- GI50 (KM-20L2): 15.9 µM (inactive)
- GI50 (KM12): 18 µM (inactive)
- GI50 (LOX IMVI): 16.1 µM (inactive)
- GI50 (LXFL 529): 16.3 µM (inactive)
- GI50 (M14): 15.8 µM (inactive)
- GI50 (M19-MEL): 19.9 µM (inactive)
- GI50 (MOLT-4): 12 µM (inactive)
- GI50 (Malme-3M): 19.1 µM (inactive)
- GI50 (NCI-H226): 25.9 µM (inactive)
- GI50 (NCI-H23): 21 µM (inactive)
- GI50 (NCI-H460): 16.6 µM (inactive)
- GI50 (NCI-H522): 15.4 µM (inactive)
- GI50 (OVCAR-3): 16.7 µM (inactive)
- GI50 (OVCAR-4): 13.6 µM (inactive)
- GI50 (OVCAR-5): 16.9 µM (inactive)
- GI50 (OVCAR-8): 16.6 µM (inactive)
- GI50 (RPMI-8226): > 10 µM (inactive)
- GI50 (RXF 393): 24.6 µM (inactive)
- GI50 (SF-295): > 10 µM (inactive)
- GI50 (SF-539): 18.7 µM (inactive)
- GI50 (SK-MEL-28): 15.7 µM (inactive)
- GI50 (SK-MEL-2): 16.3 µM (inactive)
- GI50 (SK-MEL-5): 14.4 µM (inactive)
- GI50 (SK-OV-3): 18.1 µM (inactive)
- GI50 (SN12C): 15.2 µM (inactive)
- GI50 (SNB-19): 23.3 µM (inactive)
- GI50 (SNB-75): 28.8 µM (inactive)
- GI50 (SNB-78): 16.1 µM (inactive)
- GI50 (SR): 24.7 µM (inactive)
- GI50 (SW-620): 17.2 µM (inactive)
- GI50 (TK-10): 5.81 µM (inactive)
- GI50 (U-251): 16.4 µM (inactive)
- GI50 (UACC-257): 15.9 µM (inactive)
- GI50 (UACC-62): > 10 µM (inactive)
- GI50 (UO-31): 11.5 µM (inactive)

SMILES: Cn1cnc([N+](=O)[O-])c1Sc1nc2cc(Cl)c(F)cc2[nH]1
- GI50 (786-0): > 10 µM (inactive)
- GI50 (A498): 18.6 µM (inactive)
- GI50 (A549): 15.3 µM (inactive)
- GI50 (ACHN): 12.9 µM (inactive)
- GI50 (CAKI-1): 2.58 µM (inactive)
- GI50 (COLO 205): 6.43 µM (inactive)
- GI50 (DLD-1): 7.67 µM (inactive)
- GI50 (DMS-114): 6.35 µM (inactive)
- GI50 (DMS-273): 3.54 µM (inactive)
- GI50 (EKVX): 1.38 µM (inactive)
- GI50 (HCC 2998): 7.6 µM (inactive)
- GI50 (HCT-116): 6.9 µM (inactive)
- GI50 (HCT-15): 4.37 µM
- GI50 (HOP-18): 7.8 µM (inactive)
- GI50 (HOP-62): 74.5 µM (inactive)
- GI50 (HOP-92): 13.8 µM (inactive)
- GI50 (HT-29): 14.9 µM (inactive)
- GI50 (IGROV-1): 7.66 µM (inactive)
- GI50 (KM-20L2): 11.4 µM (inactive)
- GI50 (KM12): 15 µM (inactive)
- GI50 (LOX IMVI): 16.1 µM (inactive)
- GI50 (LXFL 529): 5.7 µM (inactive)
- GI50 (M14): 13.5 µM (inactive)
- GI50 (M19-MEL): 11.7 µM (inactive)
- GI50 (MOLT-4): 2.08 µM (inactive)
- GI50 (Malme-3M): 13.7 µM (inactive)
- GI50 (NCI-H226): 9.55 µM (inactive)
- GI50 (NCI-H23): 11.5 µM (inactive)
- GI50 (NCI-H460): 10.3 µM (inactive)
- GI50 (OVCAR-3): > 10 µM (inactive)
- GI50 (OVCAR-4): 4.34 µM (inactive)
- GI50 (OVCAR-5): 16.8 µM (inactive)
- GI50 (OVCAR-8): 3.75 µM (inactive)
- GI50 (RPMI-8226): 7.24 µM (inactive)
- GI50 (RXF 393): 3.69 µM (inactive)
- GI50 (SF-268): 10.1 µM (inactive)
- GI50 (SF-295): 48.4 µM (inactive)
- GI50 (SF-539): 4.32 µM (inactive)
- GI50 (SK-MEL-28): 13.5 µM (inactive)
- GI50 (SK-MEL-5): 11.7 µM (inactive)
- GI50 (SK-OV-3): 21.5 µM (inactive)
- GI50 (SN12C): 14.1 µM (inactive)
- GI50 (SNB-19): 26.4 µM (inactive)
- GI50 (SNB-75): 13.8 µM (inactive)
- GI50 (SNB-78): 2.43 µM (inactive)
- GI50 (SR): 1.75 µM (inactive)
- GI50 (SW-620): 5.73 µM (inactive)
- GI50 (TK-10): 14.5 µM (inactive)
- GI50 (U-251): 8.41 µM (inactive)
- GI50 (UACC-257): 11.6 µM (inactive)
- GI50 (UACC-62): 14 µM (inactive)
- GI50 (UO-31): 11.3 µM (inactive)
